This is an account of results in US11149040B2, “Fused triazole agonists of the APJ receptor” (AMGEN INC., priority 2017, dated 2021).

Where only a bound is given, the exact number is not on record here.

The target in this experiment is human APJ receptor (Homo sapiens (Human), UniProt P35414). Description: [35S]GTPγS binding assay on membranes from CHO cells stably expressing human APJ receptor. The format is biochemical. The following applies: read-out: Activity hAPJ SPA EC50 IP. Put shortly: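 Membranes from CHO cells stably expressing FLAG-tagged human APJ; assay buffer GDP, MgCl2 and NaCl levels optimised beforehand. Incubation 90 min at RT, imager read-out. EC50 from non-linear regression on means of several independent experiments.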
Chain of human APJ receptor (P35414 whole entry): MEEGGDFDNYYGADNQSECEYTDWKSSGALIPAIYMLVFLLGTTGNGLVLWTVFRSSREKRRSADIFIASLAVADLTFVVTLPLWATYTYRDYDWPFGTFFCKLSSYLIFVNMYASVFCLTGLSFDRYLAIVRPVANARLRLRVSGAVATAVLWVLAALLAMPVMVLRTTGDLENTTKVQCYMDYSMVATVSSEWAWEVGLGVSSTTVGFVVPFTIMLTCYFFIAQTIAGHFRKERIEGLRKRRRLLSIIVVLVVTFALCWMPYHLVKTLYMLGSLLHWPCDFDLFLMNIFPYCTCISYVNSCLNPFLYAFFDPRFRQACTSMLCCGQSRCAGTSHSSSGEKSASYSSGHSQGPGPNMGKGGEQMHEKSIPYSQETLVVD
On the technique in general: GTPγS resists hydrolysis and so accumulates on activated G proteins.
For orientation: EC50 means the concentration needed to bring the measured effect to its halfway point. `Cc1cnc([C@H](OC(C)C)[C@H](C)S(=O)(=O)Nc2nnc3n2-c2c(F)cccc2/C=C\C[C@@H]3C)nc1` (single isomer, unassigned) [Example 50.0]: the half-maximal effective concentration (EC50) was 0.012 µM.
Next, `Cc1cnc([C@H](OC(C)C)[C@H](C)S(=O)(=O)Nc2nnc3n2-c2c(F)cccc2/C=C\C[C@@H]3C)nc1` (single isomer, unassigned) [Example 51.0]: 0.0086 µM.
For the compound `Cc1cnc([C@H](OC(C)C)[C@H](C)S(=O)(=O)Nc2nnc3n2-c2c(F)cccc2/C=C\C[C@@H]3C)nc1` (single isomer, unassigned) [Example 52.0], the EC50 is > 12.5 µM.
Next, `Cc1cnc([C@H](OC(C)C)[C@H](C)S(=O)(=O)Nc2nnc3n2-c2c(F)cccc2/C=C\C[C@@H]3C)nc1` (single isomer, unassigned) [Example 53.0]: 0.22 µM; `CO[C@H](c1ncc(C)cn1)[C@H](C)S(=O)(=O)Nc1nnc2n1[C@H](COC(C)C)COc1ncccc1-2` (single isomer, unassigned) [Example 63.0, (1R,2S)-N-((R)-5-(isopropoxymethyl)-5,6-dihydropyrido[3,2-f][1,2,4]triazolo[4,3-d][1,4]oxazepin-3-yl)-1-methoxy-1-(5-methylpyrimidin-2-yl)propane-2-sulfonamide or (1R,2S)-N-((S)-5-(isopropoxymethyl)-5,6-dihydropyrido[3,2-f][1,2,4]triazolo[4,3-d][1,4]oxazepin-3-yl)-1-methoxy-1-(5-methylpyrimidin-2-yl)propane-2-sulfonamide]: 0.8 µM.
The figure for `CO[C@H](c1ncc(C)cn1)[C@H](C)S(=O)(=O)Nc1nnc2n1[C@H](COC(C)C)COc1ncccc1-2` (single isomer, unassigned) [Example 64.0, (1R,2S)-N-((R)-5-(isopropoxymethyl)-5,6-dihydropyrido[3,2-f][1,2,4]triazolo[4,3-d][1,4]oxazepin-3-yl)-1-methoxy-1-(5-methylpyrimidin-2-yl)propane-2-sulfonamide or (1R,2S)-N-((S)-5-(isopropoxymethyl)-5,6-dihydropyrido[3,2-f][1,2,4]triazolo[4,3-d][1,4]oxazepin-3-yl)-1-methoxy-1-(5-methylpyrimidin-2-yl)propane-2-sulfonamide] is 0.64 µM.
The figure for `COC[C@@H]1COc2cnccc2-c2nnc(NS(=O)(=O)[C@@H](C)[C@@H](OC(C)C)c3ncc(C)cn3)n21` (single isomer, unassigned) [Example 66.0, (1S,2S)-N-((5R)-5-(methoxymethyl)-5,6-dihydropyrido[4,3-f][1,2,4]triazolo[4,3-d][1,4]oxazepin-3-yl)-1-(5-methyl-2-pyrimidinyl)-1-(2-propanyloxy)-2-propanesulfonamide or (1S,2S)-N-((5S)-5-(methoxymethyl)-5,6-dihydropyrido[4,3-f][1,2,4]triazolo[4,3-d][1,4]oxazepin-3-yl)-1-(5-methyl-2-pyrimidinyl)-1-(2-propanyloxy)-2-propanesulfonamide] is 0.76 µM; for `COC[C@@H]1COc2ncccc2-c2nnc(NS(=O)(=O)[C@@H](C)[C@H](OC(C)C)c3ncc(C)cn3)n21` (single isomer, unassigned) [Example 67.0, (1R,2S)-N-((5R)-5-(methoxymethyl)-5,6-dihydropyrido[3,2-f][1,2,4]triazolo[4,3-d][1,4]oxazepin-3-yl)-1-(5-methyl-2-pyrimidinyl)-1-(2-propanyloxy)-2-propanesulfonamide or (1R,2S)-N-((5S)-5-(methoxymethyl)-5,6-dihydropyrido[3,2-f][1,2,4]triazolo[4,3-d][1,4]oxazepin-3-yl)-1-(5-methyl-2-pyrimidinyl)-1-(2-propanyloxy)-2-propanesulfonamide] it is 0.25 µM.
For `COC[C@@H]1COc2ncccc2-c2nnc(NS(=O)(=O)[C@@H](C)[C@H](OC(C)C)c3ncc(C)cn3)n21` (single isomer, unassigned) [Example 68.0, (1R,2S)-N-((5R)-5-(methoxymethyl)-5,6-dihydropyrido[3,2-f][1,2,4]triazolo[4,3-d][1,4]oxazepin-3-yl)-1-(5-methyl-2-pyrimidinyl)-1-(2-propanyloxy)-2-propanesulfonamide or (1R,2S)-N-((5S)-5-(methoxymethyl)-5,6-dihydropyrido[3,2-f][1,2,4]triazolo[4,3-d][1,4]oxazepin-3-yl)-1-(5-methyl-2-pyrimidinyl)-1-(2-propanyloxy)-2-propanesulfonamide], the EC50 was 3.9 µM.
For `COC[C@@H]1COc2cccnc2-c2nnc(NS(=O)(=O)[C@@H](C)[C@@H](OC(C)C)c3ncc(C)cn3)n21` (single isomer, unassigned) [Example 69.0, (1S,2S)-N-((5R)-5-(methoxymethyl)-5,6-dihydropyrido[2,3-f][1,2,4]triazolo[4,3-d][1,4]oxazepin-3-yl)-1-(5-methyl-2-pyrimidinyl)-1-(2-propanyloxy)-2-propanesulfonamide or (1S,2S)-N-((5S)-5-(methoxymethyl)-5,6-dihydropyrido[2,3-f][1,2,4]triazolo[4,3-d][1,4]oxazepin-3-yl)-1-(5-methyl-2-pyrimidinyl)-1-(2-propanyloxy)-2-propanesulfonamide], the EC50 was found to be 0.23 µM.
Next, `COC[C@@H]1COc2cccnc2-c2nnc(NS(=O)(=O)[C@@H](C)[C@@H](OC(C)C)c3ncc(C)cn3)n21` (single isomer, unassigned) [Example 70.0, (1S,2S)-N-((5R)-5-(methoxymethyl)-5,6-dihydropyrido[2,3-f][1,2,4]triazolo[4,3-d][1,4]oxazepin-3-yl)-1-(5-methyl-2-pyrimidinyl)-1-(2-propanyloxy)-2-propanesulfonamide or (1S,2S)-N-((5S)-5-(methoxymethyl)-5,6-dihydropyrido[2,3-f][1,2,4]triazolo[4,3-d][1,4]oxazepin-3-yl)-1-(5-methyl-2-pyrimidinyl)-1-(2-propanyloxy)-2-propanesulfonamide]: 1.21 µM.
The figure for `COc1ccc2c(c1)-c1nnc(NS(=O)(=O)[C@@H](C)[C@@H](OC(C)C)c3ncc(C)cn3)n1C(CO)CO2` (single isomer, unassigned) [Example 150.0, (1S,2S)-N-((5R)-5-(hydroxymethyl)-10-methoxy-5,6-dihydro[1,2,4]triazolo[4,3-d][1,4]benzoxazepin-3-yl)-1-(5-methyl-2-pyrimidinyl)-1-(2-propanyloxy)-2-propanesulfonamide or (1S,2S)-N-((5S)-5-(hydroxymethyl)-10-methoxy-5,6-dihydro[1,2,4]triazolo[4,3-d][1,4]benzoxazepin-3-yl)-1-(5-methyl-2-pyrimidinyl)-1-(2-propanyloxy)-2-propanesulfonamide] is 1.88 µM; for `COc1ccc2c(c1)-c1nnc(NS(=O)(=O)[C@@H](C)[C@@H](OC(C)C)c3ncc(C)cn3)n1C(CO)CO2` (single isomer, unassigned) [Example 151.0, (1S,2S)-N-((5R)-5-(hydroxymethyl)-10-methoxy-5,6-dihydro[1,2,4]triazolo[4,3-d][1,4]benzoxazepin-3-yl)-1-(5-methyl-2-pyrimidinyl)-1-(2-propanyloxy)-2-propanesulfonamide or (1S,2S)-N-((5S)-5-(hydroxymethyl)-10-methoxy-5,6-dihydro[1,2,4]triazolo[4,3-d][1,4]benzoxazepin-3-yl)-1-(5-methyl-2-pyrimidinyl)-1-(2-propanyloxy)-2-propanesulfonamide] it is 1.27 µM.
